From patent US20220152022A1
Values joined by “and” are separate entries in the source; they are usually repeats but may differ in a detail not shown here. Equal values may be shown once. Where a name gives a salt, the structure may show the parent alone.

Tests used:
Format in all cases: in vivo, human
[1] = tested on: Overweight and Obese Adults; experiment: Dose-ranging phase 1 clinical study (NCT02475317), multiple oral doses for 7 days; details: for treatment-emergent adverse events: all doses, 7 days; for Mean serum 7αC4: change from baseline to day 7, greatest change at maralixibat 50 mg BID; for Mean sBA levels: versus baseline, day 7
[2] = tested on: Children with Progressive Familial Intrahepatic Cholestasis; experiment: INDIGO phase 2 open-label efficacy and safety study of maralixibat
From the text: The HRQoL used was the […] QUALITY OF LIFE INVENTORY (PedsQL).

[3] = tested on: Participants with Primary Sclerosing Cholangitis (PSC); experiment: CAMEO 14-week single-arm open-label phase 2a proof-of-concept study
Protocol: Participants were adults aged 18-80 years with a diagnosis of PSC. PSC diagnosis included a documented history of alkaline phosphatase (ALP) levels greater than 1.5 times above the upper limit of normal, biliary obstruction, and histological findings consistent with PSC diagnosis (if previously biopsied). The study enrolled 27 adults.
Efficacy was assessed by measuring at baseline and throughout the study sBA concentration, serum 7αC4 concentration (a marker of de novo bile acid synthesis), serum aoutotaxin concentration, LDL-C concentration, serum total cholesterol concentration, serum liver enzyme concentrations, and pruritus severity. Pruritus severity was determined by calculating Adult Itch Reported Outcome (ITCHRO) weekly sum scores and average daily scores (mean score over a 7-day period). Participants self-reported the ITCHRO daily on a scale 0-10 (0=no pruritus; 10=most severe pruritus).
Outcomes were assessed in the overall study population and in subgroups of participants (A) with any pruritus at baseline or (B) with an ITCHRO average daily score ≥4 out of 10 at baseline. Efficacy endpoints were based on change from baseline to week 14 or early termination (ET) and were analyzed using paired t-tests or Wilcoxon signed rank tests.

[4] = tested on: Children with Alagille Syndrome; experiment: ICONIC phase 2b randomized placebo-controlled drug-withdrawal study with long-term extension
Protocol: Children aged 1-18 years with a diagnosis of ALGS and evidence of cholestasis were eligible to enroll in the ICONIC clinical study, see Tables 12-14. During a long-term extension, participants with sBA levels above the upper limit of normal and/or an ITCHRO(OBS) score >1.5 were eligible for the 400 μg/kg BID dose (all participants received the 400 μg/kg BID dose). Inclusion criteria for the ICONIC study included having cholestasis, which was defined as at least one of 1) sBA concentration (total sBA) >3× the upper limit of normal, 2) serum conjugated bilirubin concentration >1 mg/dL, 3) fat-soluble vitamin deficiency not otherwise explained, 4) serum gamma-glutamyl transferase concentration >3× the upper limit of normal, and 3) intractable pruritus explainable only by liver disease. Inclusion criteria also included having significant pruritus, which was defined as an average daily score of >2 on the ITCHRO(OBS) scale for 2 consecutive weeks (0=no pruritus; 4=most severe pruritus). Exclusion criteria included having surgically disrupted enterohepatic circulation, a liver transplant, decompensated cirrhosis, or having any liver disease other than ALGS.
sBA responders were defined as those patients achieving ≥50% reduction from baseline in sBA at week 12 or 18. ITCHRO responders were defined as those patients achieving at least a 1-point reduction from Baseline in weekly morning ITCHRO(OBS) score at week 12 or 18.
In the open label extension, the effect of higher doses was explored by increasing dosage to a maximum of 400 μg/kg BID in eligible participants.
Efficacy assessments were based on changes from baseline in sBA concentration, weekly average ITCHRO(OBS) scores (0, none; 4, most severe), CSS score (0, none; 4 most severe), and Clinician Xanthoma Scale score (0, none; 4, disabling). […] During the long-term extension, efficacy assessments were conducted every 12 weeks. Serum total cholesterol and serum 7αC4 concentration were also monitored during the ICONIC clinical study, among other measures.
sBA were measured using a fully validated liquid chromatography-electrospray ionization-mass electrospray (LC-ESI-MS) method using stable-isotope dilution analysis to measure serum concentrations of principal bile acids (cholic, chenodeoxycholic, ursodeoxycholic, deoxycholic acid, lithocholic, and their corresponding glycine and taurine conjugates). Serum samples were analyzed in the Division of Pathology and Laboratory Medicine, Cincinnati Children's Hospital Medical Center according to SOP #PATH.CMS.1033. Calibration standards of individual bile acids were in the range of 50-25,000 ng/mL and Quality Control samples were prepared at concentrations of 100, 500, 1000, 2500, and 20000 ng/mL. The intra- and inter-assay imprecision of the method for individual bile acids measured was within the accepted GLP quality assurance guidelines of <15% coefficient of variance for these QC samples. The lower limit of quantification of the assay was set at 100 ng/mL and the imprecision at this concentration was <20%. The limit of detection of the assay was 5 ng/mL. Total sBA is represented by the sum of the individual bile acid species measured.

## CCCC[C@]1(CC)CS(=O)(=O)c2ccc(N(C)C)cc2[C@@H](c2cccc(NC(=O)N[C@@H]3O[C@H](COS(=O)(=O)O)[C@@H](O)[C@H](OCc4ccccc4)[C@H]3O)c2)[C@H]1O (stereo in doubt) [volixibat, (2R,3R,4S,5R,6R)-4-benzyloxy-6-{3-[3-((3 S,4R,5R)-3-butyl-7-dimethylamino-3-ethyl-4-hydroxy-1,1-dioxo-2,3,4,5-tetrahydro-1H-benzo[b]thiepin-5-yl)-phenyl]-ureido}-3,5-dihydroxy-tetrahydro-pyran-2-ylmethyl) hydrogen sulfate]
[1]
  treatment-emergent adverse events: All treatment-emergent adverse events were mild, and none were serious
  Mean serum 7αC4: increased
  Mean sBA levels: not elevated

## CCCCC1(CCCC)CS(=O)(=O)c2ccc(N(C)C)cc2[C@@H](c2ccc(OCc3ccc(C[N+]45CCN(CC4)CC5)cc3)cc2)[C@H]1O.[Cl-] [maralixibat]
[2]; all PFIC 1 patients and all patients harboring a truncating ABCB11 mutation
  multi-parameter response: not multi-parameter responders
[2]; all low-dose responders, e.g. within 2-6 months of first administration
  serum ALT, AST, and bilirubin concentrations over time: normalized or only mildly elevated
[2]; high dose responder, following treatment response on sBA
  height Z-score: increase in height Z-score
[2]; individual PFIC 2 participants, one line each, max dose 280 or 560 μg/kg/day (Table 6), No reponse [sic] / Rapid complete response / Good response / No response until 560 reached
  Response: Rapid (4×) and No (19×) and Good
[2]; low-dose responder losing response in long-term extension, raised to 280 μg/kg BID at between 640 and 730 days
  cholestasis markers after dose increase: sBA concentration decreased, severity of pruritus decreased, serum 7αC4 concentration increased, and 7αC4:sBA ratio increased
[2]; low-dose responders (FIG. 4)
  growth (height Z-score change relative to baseline): improved growth relative to baseline
[2]; low-dose responders (range, 3-43)
  7αC4 concentrations at 48 weeks: 14 × baseline
[2]; mild PFIC 2 patients, 280 μg/kg QD
  multi-parameter responders: 1 of 7
[2]; moderate PFIC 2 patients, 280 μg/kg twice daily
  responders only after higher dose (high-dose responder): 1 of 12
[2]; moderate PFIC 2 patients, 280 μg/kg/day
  responders by week 48: 5 of 12
[2]; non-responders (FIG. 4)
  growth (height Z-score change relative to baseline): did not
[2]; non-responders (range, 0.5-6)
  7αC4 concentrations at 48 weeks: 1.8 × baseline
[2]; responders, long-term extension
  duration of maintained response: for over a year and for up to or beyond 5 years
[1]
  treatment-emergent adverse events: All treatment-emergent adverse events were mild, and none were serious
  Mean serum 7αC4: increased
  Mean sBA levels: not elevated
[3]; adults with PSC, up to 10 mg/day, 14 weeks
  tolerability: well tolerated
[3]; all participants
  Changes in serum total bilirubin, alanine aminotransferase, aspartate aminotransferase, and alkaline phosphatase concentrations: not statistically significant
[3]; baseline to week 14
  participants with worsening of pruritus by >1 point: No participants
[3]; count of all participants
  participants with ITCHRO average daily score improved by >1 point: 8 out of 27
  participants with ITCHRO average daily score improved by >3 points: 6 of 27
[3]; overall population
  Mean conjugated bilirubin levels, increase: 0.19 mg/dL
[3]; participants with ITCHRO daily score ≥0 at baseline (so in the source)
  conjugated bilirubin levels: no significant change
[3]; participants with ITCHRO daily score ≥4 at baseline
  autotaxin levels: significant reductions
[4]; 400 μg/kg QD then 400 μg/kg BID (FIGS. 35-36)
  weight Z-scores: dose-dependent increase in weight Z-scores
[4]; ITCHRO(OBS) weekly morning average score, individual subjects (Table 18)
  Change in ItchRO from Baseline to Week 48: −0.12 and 0.49 and −0.45 and 0.00 and −1.86 (2×) and −1.71 (2×) and −1.00 (2×) and −1.29 and −1.67 and −1.14 and −1.03 and −2.50 and −2.71 and −3.50 and −0.17 and −1.43 and −0.83
[4]; across participants, after 98 weeks
  study days reported as minimal or no pruritus (ITCHRO(OBS)<1): over 89%
[4]; all participants, by week 48 (p<0.01)
  Clinician xanthoma scale scores: improved significantly
[4]; core study and extension
  quality of life: improved quality of life
[4]; core study and extension (p<0.01)
  PedsQL Multidimensional Fatigue Scale scores: Improvements were seen
[4]; core study and extension, doses up to 800 μg/kg/day, up to 4 years
  tolerability: generally well tolerated
[4]; individual subjects, one line each (Table 19)
  ItchRO(Obs) Weekly Morning Average Score, Change from Baseline to Week 48: −1.86 (2×) and −1.71 (2×) and −1.00 (2×) and −1.29 and −1.67 and −1.14 and −1.03 and −1.43
[4]; patients (N=15) given 400 μg/kg BID after 400 μg/kg QD for more than about 40 weeks
  growth after dose increase: further increase in growth from baseline
[4]; sBA Response Definition Normalization (<8.5 μmol/L)
  sBA responders at Week 48 (N = 28), %: (3.6%)
[4]; sBA Response Definition ≥80% Reduction
  sBA responders at Week 48 (N = 28), %: (14.3%)
[4]; sBA Response Definition ≥90% Reduction
  sBA responders at Week 48 (N = 28), %: (3.6%)
